In one assay the test system is BMI1. In words: Western blot of BMI1 and H2AUb in SCC23 and SCC1 cells. It counts as cell-based, human. Here is the method:
Human SCC23 and SCC1 cells were grown in DMEM containing 10% FBS and antibiotics (streptomycin and penicillin) at 37° C. in a 5% CO2 atmosphere. To generate lentiviruses, scramble control (shCtrl, Addgene, Cat #1864; see Sarbassov et al Science 2005 Feb. 18; 307(5712):1098-101) and BMI1 specific shRNA lentiviral plasmids (shBmi1, Sigma-Aldrich, Cat #TRCN0000020156, comprising […], SEQ ID NO:35) were transfected into HEK293T cells with two helper plasmids psPAX2 (Addgene, Cat #12260) and pMD2.G (Addgene, Cat #12259). Viral supernatant was harvested 72 h after transfection and passed through a 0.45 μm filter to remove cell debris and live cells. Collected lentiviruses were used directly to infect cells with the addition of polybrene (Sigma-Aldrich, Cat #H9268), or frozen at −80° C. for later use. […]
Cells were lysed using the radioimmunoprecipitation assay (RIPA) buffer (Sigma-Aldrich, Cat #R0278) added with a cocktail of protease inhibitors (Thermo Fisher Scientific, Cat ##78430) and phosphatase inhibitors (Sigma-Aldrich, Cat #4906845001). […] The signals were detected using the Clarity Western ECL kit (Bio-Rad, Cat #1705060). […] After treatment, supernatants were collected, and the protein levels of CCL5, CXCL9, CXCL10 and CXCL11 were measured with ELISA (R&D Systems, Cat #DRN00B, DCX900, DIP100, DCX110) according to the manufacturer's instructions.
For orientation: A western blot detects proteins with antibodies after separation by electrophoresis.

In a further assay the test system is CD8+ T cells. In words: Flow cytometry of T cells in lymph nodes, blood and spleen. The class given is in vivo, mouse. The following applies: blood and spleen of 4NQO-induced HNSCC mice. An excerpt:
PBMCs were isolated from blood using Ficoll-Paque Plus density gradient centrifugation (GE Healthcare Life Sciences, Cat #17-1440). Cervical lymph nodes and spleens were collected and processed into single-cell suspensions through mechanical separation. The isolated or dissociated cells were stained with the specific surface marker antibodies, anti-CD3-FITC (eBioscience, Cat #11-0031), anti-CD4-APC (eBioscience, Cat #17-0041), and anti-CD8-PerCP-Cy5.5 (eBioscience, Cat #45-0081) in PBS with FBS for 30 min at 4° C. Intracellular staining of IFNγ was performed as follows: cells were stimulated with PMA and ionomysin cocktail (eBioscience, Cat #00-4970) for 5 h at 37° C. with 5% CO2. Cells were washed and stained with surface marker antibodies, then fixed and permeabilized with a fixation/permeabilization kit (BD Bioscience, Cat #554715) and intracellularly stained with anti-IFNγ-PE (eBioscience, Cat #12-7311). For proper compensation of flow cytometry channels, single-stain samples were utilized, and for gating, isotype controls were applied. The stained cells were analyzed on the BD FACS flow cytometer, and data analyzed using Flowjo software.
Background: A flow cytometer gives signals particle by particle.

Assay [1] has as its system promoters of CCL5, CXCL9, CXCL10 and CXCL11. In words: ChIP-qPCR on chemokine promoters. The following applies: SCC23 cells. The class given is cell-based, human. As for the experimental part: ChIP-qPCR assays were performed as previously described (Ding et al, 2013). Briefly, SCC cells were sequentially treated with dimethyl 3,3′-dithiobispropionimidate-HCl (DTBP; Cat #20665, Thermo Fisher Scientific) solution and formaldehyde, and harvested with a cell scraper. The cell pellet was lysed with ChIP lysis buffer and sonicated to generate 200-500 bp DNA fragments with a sonicator. The fragmented chromatins were immunoprecipitated with anti-BMI1 (Cell Signaling Technology, Cat #6964), anti-Ubiquityl-Histone H2A (Lys119) (Cell Signaling Technology, Cat #8240) overnight at 4° C. The precipitated DNA-chromatin products were purified with ChIP DNA clean & concentrator kit (Cat #D5205, Zymo Research) and the DNA levels were quantified by qPCR. Data is presented as the percentage of input DNA.
Background: Quantitative PCR measures a nucleic acid by following its amplification.

Assay [2] concerns cGAS-STING-IRF3 signaling. In words: Western blot of phosphorylated STING, TBK1, IRF3. The class given is cell-based, human. As for the experimental part: (§1) Cells were lysed using the radioimmunoprecipitation assay (RIPA) buffer (Sigma-Aldrich, Cat #R0278) added with a cocktail of protease inhibitors (Thermo Fisher Scientific, Cat ##78430) and phosphatase inhibitors (Sigma-Aldrich, Cat #4906845001). Protein extracts were resolved on a 10% or 15% SDS polyacrylamide gel and then transferred to a polyvinylidene difluoride membrane. Membranes were blocked with 5% milk for 1 h and incubated with primary antibodies overnight at 4° C. Primary antibodies used in this study were: anti-phospho-STING (Ser366) (1:1,000; Cell Signaling Technology, Cat #19781), anti-STING (1:1,000; Cell Signaling Technology, Cat #13647), anti-phospho-TBK1 (Ser172) (1:1,000; Cell Signaling Technology, Cat #5483), anti-TBK1 (1:1,000; Cell Signaling Technology, Cat #3504), anti-phospho-IRF3 (Ser396) (1:1,000; Cell Signaling Technology, Cat #29047), anti-IRF3 (1:1,000; Cell Signaling Technology, Cat #4302), anti-BMI1 (1:1,000; Cell Signaling Technology, Cat #6964), anti-Ubiquityl-Histone H2A (Lys119) (1:1000, Cell Signaling Technology, Cat #8240), anti-phospho Histone H2A.X (Ser139) (1:1000; Cell Signaling Technology, Cat #9718), and anti-GAPDH (1:1000; Cell Signaling Technology, Cat #5174), anti-Histone H3 (1:2,000; Cell Signaling Technology, Cat #4499). The signals were detected using the Clarity Western ECL kit (Bio-Rad, Cat #1705060). To measure the protein levels of CCL5, CXCL9, CXCL10 and CXCL11, cells were treated with PTC209 or shBMI1 knockdown for 48 hr. After treatment, supernatants were collected, and the protein levels of CCL5, CXCL9, CXCL10 and CXCL11 were measured with ELISA (R&D Systems, Cat #DRN00B, DCX900, DIP100, DCX110) according to the manufacturer's instructions.

For assay [3], the system named is CSCs isolated from human colorectal cancers. To be noted: cited from earlier work.
For the next assay, the system named is pH2A.X. In words: DNA damage in SCC23 and SCC1 cells (pH2A.X, alkaline comet assay). The class given is cell-based, human. As for the experimental part: as §1
Single cell gel electrophoresis comet assays were performed using the SCGE assay Kit (Enzo Life Sciences, Cat #ADI-900-166). Following the treatment, cells were mixed with low melting point agarose at a volume ratio of 1:50, and 100 μl of aliquots were loaded onto pre-warmed slides. Slides were incubated in pre-chilled lysis solution for 1 h and then in pre-chilled alkaline solution for 1 h. Electrophoresis was run at 22 V in the TBE buffer for 30 min. Comets were stained with CYGREEN dye for 30 min and imaged. 50 individual cells at least per sample were evaluated in duplicates by the CASP Version 1.2.2 analysis tool.

Results on 1 compound are retold here after patent US20230233566A1, “INHIBITION OF BMI1 ELIMINATES CANCER STEM CELLS AND ACTIVATES ANTITUMOR IMMUNITY” (The Regents of the University of California, priority 2020, published 2023).

Structures are written as SMILES.

With `COc1cc(Br)c(Nc2nc(-c3c(C)nc4ncccn34)cs2)c(Br)c1` [PTC209, N-(2,6-dibromo-4-methoxyphenyl)-4-(2-methylimidazo[1,2-a]pyrimidin-3-yl)thiazol-2-amine], the “BMI1 and H2AUb levels” value with BMI1 was “reduced BMI1 and H2AUb in SCC23 and SCC1 cells in a dose-dependent manner”. For the same compound, the “percentage of CD8+ T cells and IFNγ-produced CD8+ T cells” value with CD8+ T cells is “no significant alteration in the percentage of CD8+ T cells and IFNγ-produced CD8+ T cells”. Further, the “levels of BMI1 on the promoters of CCL5, CXCL9, CXCL10 and CXCL11” value in assay [1] is recorded as “significantly reduced the levels of BMI1 on these promoters in SCC23 cells”. The “levels of H2AUb marks on the promoters of CCL5, CXCL9, CXCL10 and CXCL11” value in assay [1] is reported as “significantly decreased in SCC23 cells”. The “phosphorylation of STING (S366), TBK1 (S172) and IRF3 (S396)” value in assay [2] (SCC1 cells) was “induction of phosphorylation of STING (S366), TBK1 (S172) and IRF3 (S396) in SCC1 cells”; in assay [2] (SCC23 cells), “induction of phosphorylation of STING (S366), TBK1 (S172) and IRF3 (S396) in SCC23 cells”. Besides, in assay [3] (mouse xenograft models), the “colorectal tumor growth and frequency of CSCs” value was “inhibited colorectal tumor growth and reduced the frequency of CSCs in mouse xenograft models”. In addition, in assay [3] (xenografted nude mouse model), the “self-renewal of CSCs” value is listed as “abolish the self-renewal of CSCs isolated from human colorectal cancers”. Besides, the Olive tail moment entry in the assay on pH2A.X (alkaline comet assay) was “significantly increased the Olive tail moment in SCC23 and SCC1 cells”. In addition, the pH2A.X result with pH2A.X (immunostaining and Western blot) is “increased pH2A.X in SCC23 and SCC1 cells”.
